Where two headings read alike, the source gives them in different places.
What was measured:
corn [1] = experiment: Test A postemergence; type: in vivo, Zea mays; conditions: postemergence, 10 days; for plant injury at 125 g/ha / Corn plant response rating (crop injury, 0 = no effect, 100 = complete kill) at 500 g/ha: Zea mays, post-emergence, 240 h; for plant injury at 125 g/ha: read-out: Corn plant response rating
Procedure, shortened: (§1)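 Seeds in loam–sand blend received a directed preemergence soil spray of compound in non-phytotoxic solvent with surfactant; postemergence plants (2–10 cm, one- to two-leaf stage) were sprayed with the same formulation. After 10 days in greenhouse, injury was rated visually versus untreated controls, 0 (no effect) to 100 (complete control).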

horseweed = experiment: Test A postemergence; type: in vivo, Erigeron canadensis; conditions: postemergence, 10 days; for pest or weed control at 125 g/ha / pest or weed control at 500 g/ha: Erigeron canadensis, post-emergence, 240 h; for pest or weed control at 125 g/ha: read-out: Horseweed plant response rating; for pest or weed control at 500 g/ha: read-out: Plant response rating, Horseweed
Procedure, shortened: as §1

barnyardgrass [2] = experiment: Test A preemergence; type: in vivo, Echinochloa crusgalli; conditions: visual injury after 10 days, 0 to 100 scale, 0 is no effect, 100 is complete control
Procedure, shortened: as §1

barnyardgrass [3] = experiment: Test A postemergence; type: in vivo, Echinochloa crusgalli; conditions: postemergence, 10 days; for Barnyardgrass plant response rating: 125 g ai/ha, 0 to 100 scale, 0 no effect, 100 complete control; for Plant response rating, Barnyardgrass: 500 g ai/ha, visual injury, 0 to 100 scale (0 no effect, 100 complete control)
Procedure, shortened: as §1

ragweed = experiment: Test A preemergence; type: in vivo, Ambrosia artemisiifolia; conditions: for pest or weed control at 125 g/ha / pest or weed control at 500 g/ha: Ambrosia artemisiifolia, pre-emergence, 240 h, read-out: Plant response rating, Ragweed
Procedure, shortened: as §1

pigweed, palmer = experiment: Test A postemergence; type: in vivo, Amaranthus palmeri; conditions: postemergence, 10 days; for pest or weed control at 125 g/ha / pest or weed control at 500 g/ha: Amaranthus palmeri, post-emergence, 240 h; for pest or weed control at 125 g/ha: read-out: Pigweed, Palmer plant response rating; for pest or weed control at 500 g/ha: read-out: Plant response rating, Pigweed, Palmer
Procedure, shortened: as §1

blackgrass = experiment: Test A postemergence; type: in vivo, Alopecurus myosuroides; conditions: postemergence, 10 days; for pest or weed control at 125 g/ha / pest or weed control at 500 g/ha: Alopecurus myosuroides, post-emergence, 240 h; for pest or weed control at 125 g/ha / Blackgrass plant response rating: 125 g ai/ha; for pest or weed control at 125 g/ha / pest or weed control at 500 g/ha / Plant response rating, Blackgrass: 0 to 100 scale (0 no effect, 100 complete control); for pest or weed control at 125 g/ha: read-out: Blackgrass plant response rating; for pest or weed control at 500 g/ha / Plant response rating, Blackgrass: 500 g ai/ha, visual injury; for pest or weed control at 500 g/ha: read-out: Plant response rating, Blackgrass; for Blackgrass plant response rating: 0 to 100 scale, 0 no effect, 100 complete control
Procedure, shortened: as §1

foxtail, giant [4] = experiment: Test A postemergence; type: in vivo, Setaria faberi; conditions: postemergence, 10 days; for pest or weed control at 125 g/ha / pest or weed control at 500 g/ha: Setaria faberi, post-emergence, 240 h; for pest or weed control at 125 g/ha: read-out: Foxtail, Giant plant response rating; for pest or weed control at 500 g/ha: read-out: Plant response rating, Foxtail, Giant
Procedure, shortened: as §1

foxtail, giant [5] = experiment: Test A preemergence; type: in vivo, Setaria faberi; conditions: for pest or weed control at 125 g/ha / pest or weed control at 500 g/ha: Setaria faberi, pre-emergence, 240 h, read-out: Plant response rating, Foxtail, Giant
Procedure, shortened: as §1

barnyardgrass [6] = experiment: Test B flooded paddy test; type: in vivo, Echinochloa crus-galli; conditions: 250 g ai/ha, Flood, 13 days, 0 to 100 scale (0 no effect, 100 complete control); for pest or weed control at 250 g/ha: Echinochloa crus-galli, 312 h, read-out: Plant response rating, Barnyardgrass
Procedure, shortened: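 Percent weed or crop control, judged by eye on a 0–100 scale 13 days post-treatment, reflects compound added to a 3 cm flood maintained over 2-leaf plants in the greenhouse. Missing entries are marked with a dash.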

wheat = experiment: Test A preemergence; type: in vivo, Triticum aestivum; conditions: for plant injury at 125 g/ha / plant injury at 500 g/ha: Triticum aestivum, pre-emergence, 240 h, read-out: Plant response rating, Wheat
Procedure, shortened: as §1

corn [7] = experiment: Test A preemergence; type: in vivo, Zea mays; conditions: for Corn plant response rating (crop injury, 0 = no effect, 100 = complete kill) at 125 g/ha / Corn plant response rating (crop injury, 0 = no effect, 100 = complete kill) at 500 g/ha: Zea mays, pre-emergence, 240 h
Procedure, shortened: as §1

ryegrass, Italian = experiment: Test A preemergence; type: in vivo, Lolium multiflorum; conditions: for pest or weed control at 125 g/ha / pest or weed control at 500 g/ha: Lolium multiflorum, pre-emergence, 240 h, read-out: Plant response rating, Ryegrass, Italian
Procedure, shortened: as §1

[8] = 125 g ai/ha, 0 to 100 scale (0 no effect, 100 complete control)
[9] = 500 g ai/ha, visual injury, 0 to 100 scale (0 no effect, 100 complete control)
[10] = 125 g ai/ha, visual injury after 10 days, 0 to 100 scale, 0 is no effect, 100 is complete control
[11] = 500 g ai/ha, 0 to 100 scale (0 no effect, 100 complete control), 10 days
[12] = 500 g ai/ha, visual injury after 10 days, 0 to 100 scale, 0 is no effect, 100 is complete control
[13] = 125 g ai/ha, 0 to 100 scale, 0 no effect, 100 complete control

| SMILES | plant injury at 125 g/ha (corn [1]; [8]) | Corn plant response rating (crop injury, 0 = no effect, 100 = complete kill) at 500 g/ha (corn [1]; [9]) | pest or weed control at 125 g/ha (horseweed; [8]) | pest or weed control at 500 g/ha (horseweed; [9]) | Plant response rating, Barnyardgrass (barnyardgrass [2]; 125 g ai/ha) | Barnyardgrass plant response rating (barnyardgrass [3]) | Plant response rating, Barnyardgrass (barnyardgrass [3]) | pest or weed control at 125 g/ha (pigweed, palmer; [8]) | pest or weed control at 500 g/ha (pigweed, palmer; [9]) | pest or weed control at 125 g/ha (blackgrass) | pest or weed control at 500 g/ha (blackgrass) | pest or weed control at 125 g/ha (foxtail, giant [4]; [8]) | pest or weed control at 500 g/ha (foxtail, giant [4]; [9]) | pest or weed control at 250 g/ha (barnyardgrass [6]) | Plant response rating, Barnyardgrass (barnyardgrass [2]; 500 g ai/ha) | pest or weed control at 125 g/ha (ragweed; 125 g ai/ha, 0 to 100 scale) | Blackgrass plant response rating (blackgrass) | Plant response rating, Blackgrass (blackgrass) | pest or weed control at 125 g/ha (foxtail, giant [5]; 125 g ai/ha, 0 to 100 scale) | Plant response rating, Barnyardgrass (barnyardgrass [6]) | other results |
| --- | --- | --- | --- | --- | --- | --- | --- | --- | --- | --- | --- | --- | --- | --- | --- | --- | --- | --- | --- | --- | --- |
| Cc1cccc2c1O[C@@H](C)CN2C(=O)c1cccc(-n2cnc(C3COC3)n2)c1 [Compound 109, [(2S)-2,3-Dihydro-2,8-dimethyl-4H-1,4-benzoxazin-4-yl][3-[3-(3-oxetanyl)-1H-1,2,4-triazol-1-yl]phenyl]methanone] | 60% | 90% | 10% | 30% | 90 | 50 | 90 | 60% | 60% | 70% | 90% | 70% | 90% | 40% |  |  |  |  |  |  | pest or weed control at 125 g/ha (ragweed; [10]): 40%; pest or weed control at 500 g/ha (ragweed; [11]): 80%; pest or weed control at 125 g/ha (foxtail, giant [5]; [10]): 100%; pest or weed control at 500 g/ha (foxtail, giant [5]; [11]): 100%; plant injury at 125 g/ha (wheat; [10]): 40%; plant injury at 500 g/ha (wheat; [11]): 90%; Corn plant response rating (crop injury, 0 = no effect, 100 = complete kill) at 125 g/ha (corn [7]; [10]): 40%; Corn plant response rating (crop injury, 0 = no effect, 100 = complete kill) at 500 g/ha (corn [7]; [11]): 70%; pest or weed control at 125 g/ha (ryegrass, Italian; [10]): 80%; pest or weed control at 500 g/ha (ryegrass, Italian; [11]): 100% |
| CC(C)c1ncn(-c2cc(C(=O)N3C[C@H](C)Oc4c(Cl)cccc43)c3ccccc3c2)n1 [Compound 146] | 10% |  | 0% |  | 20 | 20 | 20 | 70% |  |  |  | 30% |  |  | 70 | 0% | 10 | 20 | 80% | 0 | Plant response rating, Corn (corn [1]; [9]): 30; Plant response rating, Horseweed (horseweed; [9]): 0; Plant response rating, Ragweed (ragweed; [12]): 0; Plant response rating, Pigweed, Palmer (pigweed, palmer; [9]): 70; Plant response rating, Foxtail, Giant (foxtail, giant [4]; [9]): 50; Plant response rating, Foxtail, Giant (foxtail, giant [5]; [12]): 100; Plant response rating, Wheat (wheat; [12]): 0; plant injury at 125 g/ha (wheat; 125 g ai/ha, 0 to 100 scale): 0%; Plant response rating, Corn (corn [7]; [12]): 0; Corn plant response rating (crop injury, 0 = no effect, 100 = complete kill) at 125 g/ha (corn [7]; 125 g ai/ha, 0 to 100 scale): 0%; Plant response rating, Ryegrass, Italian (ryegrass, Italian; [12]): 70; pest or weed control at 125 g/ha (ryegrass, Italian; 125 g ai/ha, 0 to 100 scale): 30% |
| C[C@H]1CN(C(=S)c2cccc(-n3cncn3)c2)c2cccc(Cl)c2O1 [Compound 139, [(2S)-8-Chloro-2,3-dihydro-2-methyl-4H-1,4-benzoxazin-4-yl][3-(1H-1,2,4-triazol-1-yl)phenyl]methanethione] | 40% | 60% | 0% | 0% | 70 | 20 | 70 | 40% | 80% | 80% | 90% | 80% | 100% | 15% | 90 | 0% |  |  | 90% |  | pest or weed control at 500 g/ha (ragweed; [12]): 0%; pest or weed control at 500 g/ha (foxtail, giant [5]; [12]): 100%; plant injury at 125 g/ha (wheat; 125 g ai/ha, 0 to 100 scale): 20%; plant injury at 500 g/ha (wheat; [12]): 20%; Corn plant response rating (crop injury, 0 = no effect, 100 = complete kill) at 125 g/ha (corn [7]; 125 g ai/ha, 0 to 100 scale): 0%; Corn plant response rating (crop injury, 0 = no effect, 100 = complete kill) at 500 g/ha (corn [7]; [12]): 40%; pest or weed control at 125 g/ha (ryegrass, Italian; 125 g ai/ha, 0 to 100 scale): 50%; pest or weed control at 500 g/ha (ryegrass, Italian; [12]): 80% |
| CC(C)c1ncn(-c2cc(C(=O)N3C[C@H](C)Oc4c(Cl)cccc43)c3ccccc3c2)n1 [Compound 145] |  | 20% |  | 0% | 0 | 20 | 20 |  | 90% |  |  |  | 50% |  | 40 |  | 40 | 70 |  | 45 | Corn plant response rating (corn [1]; [13]): 10; Horseweed plant response rating (horseweed; [13]): 0; Plant response rating, Ragweed (ragweed; 125 g ai/ha, 0 to 100 scale): 0; pest or weed control at 500 g/ha (ragweed; [12]): 0%; Pigweed, Palmer plant response rating (pigweed, palmer; [13]): 70; Foxtail, Giant plant response rating (foxtail, giant [4]; [13]): 20; Plant response rating, Foxtail, Giant (foxtail, giant [5]; 125 g ai/ha, 0 to 100 scale): 70; pest or weed control at 500 g/ha (foxtail, giant [5]; [12]): 80%; Plant response rating, Wheat (wheat; 125 g ai/ha, 0 to 100 scale): 0; plant injury at 500 g/ha (wheat; [12]): 0%; Plant response rating, Corn (corn [7]; 125 g ai/ha, 0 to 100 scale): 0; Corn plant response rating (crop injury, 0 = no effect, 100 = complete kill) at 500 g/ha (corn [7]; [12]): 0%; Plant response rating, Ryegrass, Italian (ryegrass, Italian; 125 g ai/ha, 0 to 100 scale): 40; pest or weed control at 500 g/ha (ryegrass, Italian; [12]): 90% |

Reference: patent publication US20260262643A1, “HERBICIDAL BENZOXAZINES” (FMC CORPORATION, priority 2022, published 2026)
